Assay results: ChEMBL document CHEMBL1806384, “Identification of benzofuran-4,5-diones as novel and selective non-hydroxamic acid, non-peptidomimetic based inhibitors of human peptide deformylase” (Bioorg Med Chem Lett, 2011)
pIC50: −log10 of the molar value. In brackets after ≈: the same amount, converted by molar mass.

Tests used:
Enterococcus faecium = assay: Antibacterial activity against Enterococcus faecium ATCC 19434; assay type: functional
Citrobacter freundii = assay: Antibacterial activity against Citrobacter freundii ATCC 8090; assay type: functional
Enterococcus faecalis = assay: Antibacterial activity against Enterococcus faecalis ATCC 29212; assay type: functional
Haemophilus influenzae = assay: Antibacterial activity against Haemophilus influenzae ATCC 49766; assay type: functional
Bacteroides fragilis = assay: Antibacterial activity against Bacteroides fragilis ATCC 25285; assay type: functional
Streptococcus pyogenes = assay: Antibacterial activity against Streptococcus pyogenes ATCC 19615; assay type: functional
Cutibacterium acnes = assay: Antibacterial activity against Propionibacterium acnes ATCC 11827; assay type: functional
Escherichia coli = assay: Antibacterial activity against Escherichia coli ATCC 25922; assay type: functional
Candida albicans = assay: Antifungal activity against Candida albicans ATCC 90028; assay type: functional
[1] = system: Staphylococcus epidermidis; assay: Antibacterial activity against Staphylococcus epidermidis ATCC 12228; assay type: functional
Staphylococcus aureus = assay: Antibacterial activity against Staphylococcus aureus ATCC 29213; assay type: functional
Jurkat = assay: Cytotoxicity against human Jurkat cells; assay type: functional, cell-based
[2] = Cytotoxicity against human CWR22 cells; assay type: functional, cell-based
[3] = biological target: T1, Interstitial collagenase (Homo sapiens) (UniProt P03956); assay: Inhibition of human recombinant MMP1 at 100 uM after 1 hr by fluorescence polarization based competition assay
T1 sequence (whole entry): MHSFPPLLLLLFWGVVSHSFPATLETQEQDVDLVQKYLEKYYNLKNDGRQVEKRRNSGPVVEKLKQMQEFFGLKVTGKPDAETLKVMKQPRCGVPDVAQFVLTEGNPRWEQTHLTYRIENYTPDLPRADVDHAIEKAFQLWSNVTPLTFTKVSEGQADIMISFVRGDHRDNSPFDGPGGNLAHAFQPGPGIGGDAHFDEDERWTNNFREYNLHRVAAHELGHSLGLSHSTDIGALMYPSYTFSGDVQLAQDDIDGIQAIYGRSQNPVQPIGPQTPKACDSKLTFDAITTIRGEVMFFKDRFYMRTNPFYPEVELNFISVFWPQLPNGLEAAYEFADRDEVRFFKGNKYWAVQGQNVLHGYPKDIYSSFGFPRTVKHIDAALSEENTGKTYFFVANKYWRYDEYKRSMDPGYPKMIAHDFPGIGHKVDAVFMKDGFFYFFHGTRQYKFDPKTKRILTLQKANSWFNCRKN

HL-60 [4] = assay: Cytotoxicity against human HL60 cells; assay type: functional, cell-based
HL-60 [5] = assay: Cytotoxicity against human vincristine-resistant HL60 cells; assay type: functional, cell-based
[6] = Cytotoxicity against human ALL3 cells; assay type: functional, cell-based
MOLT-3 = assay: Cytotoxicity against human MOLT3 cells; assay type: functional, cell-based
Y79 = assay: Cytotoxicity against human Y79 cells; assay type: functional, cell-based
[7] = biological target: T2, Peptide deformylase (Escherichia coli) (UniProt Q9JN24); assay: Inhibition of Escherichia coli peptide deformylase at 100 uM after 1 hr by fluorescence polarization based competition assay
T2 sequence (whole entry): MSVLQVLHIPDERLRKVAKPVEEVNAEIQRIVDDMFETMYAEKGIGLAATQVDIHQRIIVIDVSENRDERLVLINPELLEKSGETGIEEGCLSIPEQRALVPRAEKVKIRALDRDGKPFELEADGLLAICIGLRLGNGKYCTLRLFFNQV

[8] = Cytotoxicity against human Meso47 cells; assay type: functional, cell-based
Peptide deformylase = biological target: T3, Peptide deformylase (Escherichia coli, UniProt Q9JN24); assay: Inhibition of Escherichia coli peptide deformylase after 1 hr by fluorescence polarization based competition assay
T3 sequence (Q9JN24 whole entry): T2 sequence (whole entry)

[9] = biological target: T4, Peptide deformylase, mitochondrial (Homo sapiens, UniProt Q9HBH1); assay: Inhibition of human peptide deformylase after 1 hr by fluorescence polarization based competition assay
T4 sequence (Q9HBH1 whole entry): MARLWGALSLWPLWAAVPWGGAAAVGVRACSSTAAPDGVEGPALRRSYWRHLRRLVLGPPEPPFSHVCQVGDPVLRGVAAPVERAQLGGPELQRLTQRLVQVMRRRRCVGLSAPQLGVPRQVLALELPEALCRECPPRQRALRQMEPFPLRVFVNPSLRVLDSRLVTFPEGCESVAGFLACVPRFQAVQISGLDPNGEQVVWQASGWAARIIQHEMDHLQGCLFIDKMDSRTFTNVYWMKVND

HEK293 = assay: Cytotoxicity against human HEK293 cells; assay type: cell-based
[10] = biological target: T5, Peptide deformylase, mitochondrial (Homo sapiens) (UniProt Q9HBH1); assay: Inhibition of human peptide deformylase at 100 uM after 1 hr by fluorescence polarization based competition assay
T5 sequence (whole entry): T4 sequence (Q9HBH1 whole entry)

[11] = biological target: T6, Aminopeptidase N (Sus scrofa) (UniProt P15145); assay: Inhibition of porcine kidney microsomal aminopeptidase N at 100 uM after 1 hr by fluorescence polarization based competition assay
T6 sequence (whole entry): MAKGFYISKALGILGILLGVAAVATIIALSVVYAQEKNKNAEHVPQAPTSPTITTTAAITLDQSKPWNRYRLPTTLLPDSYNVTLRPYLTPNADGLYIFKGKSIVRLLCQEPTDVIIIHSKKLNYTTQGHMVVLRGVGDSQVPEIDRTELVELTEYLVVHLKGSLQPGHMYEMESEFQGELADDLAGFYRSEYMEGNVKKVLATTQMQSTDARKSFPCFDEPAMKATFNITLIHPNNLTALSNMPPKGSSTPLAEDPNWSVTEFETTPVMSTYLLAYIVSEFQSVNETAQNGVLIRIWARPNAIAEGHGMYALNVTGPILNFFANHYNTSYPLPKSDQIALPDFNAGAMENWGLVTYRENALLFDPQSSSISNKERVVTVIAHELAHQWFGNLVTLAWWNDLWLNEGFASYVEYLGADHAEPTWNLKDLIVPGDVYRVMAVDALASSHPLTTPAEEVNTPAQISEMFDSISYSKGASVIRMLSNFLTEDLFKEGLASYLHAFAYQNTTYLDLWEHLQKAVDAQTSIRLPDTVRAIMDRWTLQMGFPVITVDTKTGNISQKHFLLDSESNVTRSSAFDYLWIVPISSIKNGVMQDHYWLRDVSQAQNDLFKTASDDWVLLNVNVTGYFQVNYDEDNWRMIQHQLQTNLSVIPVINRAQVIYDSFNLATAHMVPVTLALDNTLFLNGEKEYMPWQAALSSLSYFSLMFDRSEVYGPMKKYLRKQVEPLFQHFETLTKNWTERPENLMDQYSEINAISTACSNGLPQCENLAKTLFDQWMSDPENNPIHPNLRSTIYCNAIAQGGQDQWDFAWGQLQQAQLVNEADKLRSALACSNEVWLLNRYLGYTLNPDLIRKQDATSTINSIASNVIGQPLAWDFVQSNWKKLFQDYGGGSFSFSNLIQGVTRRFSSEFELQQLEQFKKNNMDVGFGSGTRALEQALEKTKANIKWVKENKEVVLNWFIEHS

Streptococcus pneumoniae = assay: Antibacterial activity against Streptococcus pneumoniae ATCC 6301; assay type: functional
Enterobacter cloacae = assay: Antibacterial activity against Enterobacter cloacae ATCC 13047; assay type: functional
[12] = biological target: T5, Peptide deformylase, mitochondrial (Homo sapiens); assay: Inhibition of human peptide deformylase at 10 uM after 1 hr by fluorescence polarization based competition assay

| SMILES | MIC (Enterococcus faecium) [µg/mL] | MIC (Citrobacter freundii) [µg/mL] | MIC (Enterococcus faecalis) [µg/mL] | MIC (Haemophilus influenzae) [µg/mL] | MIC (Bacteroides fragilis) [µg/mL] | MIC (Streptococcus pyogenes) [µg/mL] | MIC (Cutibacterium acnes) [µg/mL] | MIC (Escherichia coli) [µg/mL] | pIC50 [2] | inhibition [3] [%] | pIC50 (HL-60 [5]) | pIC50 [6] | pIC50 (MOLT-3) | inhibition [7] [%] | pIC50 [8] | pIC50 (Peptide deformylase) | pIC50 [9] | pIC50 (HEK293) | inhibition [10] [%] | inhibition [11] [%] | other results |
| --- | --- | --- | --- | --- | --- | --- | --- | --- | --- | --- | --- | --- | --- | --- | --- | --- | --- | --- | --- | --- | --- |
| O=C(O)c1cn(C2CC2)c2cc(N3CCNCC3)c(F)cc2c1=O [CIPROFLOXACIN] | 4 (≈ 12.1 µM) | ≤ 0.12 | 0.25 (≈ 0.754 µM) | ≤ 0.12 | 4 (≈ 12.1 µM) | 0.25 (≈ 0.754 µM) | 0.25 (≈ 0.754 µM) | ≤ 0.12 |  |  |  |  |  |  |  |  |  |  |  |  | MIC (Candida albicans): > 64 µg/mL; MIC [1]: ≤ 0.12 µg/mL; MIC (Staphylococcus aureus): 0.5 µg/mL (≈ 1.51 µM) |
| COc1ccc(C(=O)c2coc3c2C(=O)C(=O)C(Br)=C3Br)cc1OC |  |  |  |  |  |  |  |  | 4.00 | 46 | 4.19 | 4.44 | 4.60 | 53 | 4.00 | < 4.00 | 5.00 | 4.00 | 100 | 96 | pIC50 (Jurkat): 4.55; pIC50 (HL-60 [4]): 4.38; pIC50 (Y79): 4.00 |
| COc1ccc(C(=O)c2coc3c2C(=O)C(=O)C(Cl)=C3Cl)cc1OC |  |  |  |  |  |  |  |  |  | 46 | 4.00 |  |  | 63 |  |  | 5.21 | 4.00 | 100 | 99 |  |
| O=C1C(=O)c2c(C(=O)c3ccccc3)coc2C(Cl)=C1Cl | > 64 | > 64 | > 64 | > 64 | > 64 | > 64 | > 64 | > 64 | 4.14 | 41 | 4.00 | 4.16 | 4.51 | 65 | 4.00 | < 4.00 |  | 4.00 | 100 | 101 | MIC (Streptococcus pneumoniae): 4 µg/mL (≈ 12.5 µM); MIC (Enterobacter cloacae): > 64 µg/mL; pIC50 (Y79): 4.00; inhibition [12]: 90%; MIC (Candida albicans): > 64 µg/mL; MIC [1]: > 64 µg/mL; MIC (Staphylococcus aureus): > 64 µg/mL |
| C[C@@H](O)[C@H]1C(=O)N2C(C(=O)O)=C(SCCNC=N)C[C@H]12 [IMIPENEM ANHYDROUS] | 2 (≈ 6.68 µM) | 1 (≈ 3.34 µM) | 0.5 (≈ 1.67 µM) | 1 (≈ 3.34 µM) | ≤ 0.12 | ≤ 0.12 | ≤ 0.12 | ≤ 0.12 |  |  |  |  |  |  |  |  |  |  |  |  | MIC (Streptococcus pneumoniae): ≤ 0.12 µg/mL; MIC (Enterobacter cloacae): 1 µg/mL (≈ 3.34 µM); MIC (Candida albicans): > 64 µg/mL; MIC [1]: ≤ 0.12 µg/mL; MIC (Staphylococcus aureus): ≤ 0.12 µg/mL |
| COc1ccc(C(=O)c2coc3c2C(=O)C(=O)C(Br)=C3Br)cc1 |  |  |  |  |  |  |  |  | 4.15 | 23 | 4.00 | 4.15 | 4.40 | 22 | 4.00 | < 4.00 | 4.19 | 4.00 | 100 | 41 | pIC50 (Jurkat): 4.26; pIC50 (HL-60 [4]): 4.28 |
| COc1ccc(C(=O)c2coc3c2C(=O)C(=O)C(Cl)=C3Cl)cc1 | > 64 | > 64 | > 64 | > 64 | > 64 | > 64 | > 64 | > 64 | 4.30 | 0 | 4.37 | 4.57 | 5.39 | 1 | 4.00 | < 4.00 | 4.82 | 4.52 | 88 | 50 | pIC50 (Jurkat): 5.21; MIC (Streptococcus pneumoniae): 16 µg/mL (≈ 45.6 µM); MIC (Enterobacter cloacae): > 64 µg/mL; pIC50 (HL-60 [4]): 5.00; pIC50 (Y79): 4.18; MIC (Candida albicans): > 64 µg/mL; MIC [1]: > 64 µg/mL; MIC (Staphylococcus aureus): > 64 µg/mL |
| COc1ccc(C(=O)c2coc3c2C(=O)C(=O)C=C3Cl)cc1 |  |  |  |  |  |  |  |  | 4.23 | 10 |  | 4.33 | 4.96 | 13 | 4.00 | < 4.00 | 4.80 | 4.40 | 100 | 68 | pIC50 (Jurkat): 4.89; pIC50 (HL-60 [4]): 4.77; pIC50 (Y79): 4.13 |
